Experimental data: patent US20240218016A1, “PEPTIDES AND THEIR USE IN THE TREATMENT OF INFLAMMATION” (Shenzhen Institutes of Advanced Technology, priority 2019, published 2024)
Where no end group is shown, it is not given here. [ ]: non-standard residue; d: D form. The star is where a group is joined. Dihydrocaffeoyl = O=C(CCc1ccc(O)c(O)c1)*; Dopa = N[C@@H](Cc1ccc(O)c(O)c1)C(=O)O; Hyp = O=C(O)[C@@H]1C[C@@H](O)CN1

system: xylene-induced ear swelling; assay: Mouse ear swelling model (xylene-induced); assay type: in vivo, BALB/c mice; details: (right ear weight - left ear weight)/left ear weight x 100; about 0.1 g gel (peptide 0.5 mg/g) or Dex cream on right ear 1 hour before 20 μL xylene; ears taken 40 minutes after xylene; 5 mice per group
Procedure: 35 Health male BALB/c mice with 6-8 weeks old and average body weight of 18-25 g were supplied from Changzhou Cvens Experimental Animal Co., Ltd. and housed and cared for about 1 week prior to the experiment. The housing temperature was around 25 to 27 ° C. with 74% humidity, alternating 12-hour periods of light and darkness, and free access to food and water. The mice were randomly divided into 7 groups as described in Table 5 below, with 5 mice in each group. [table] Dexamethasone acetate cream (Dex cream; 5 mg/10 g (which means that there was 5 mg Dex contained in 10 g of the cream), Fuyuan Pharmaceutical Co. Ltd., Anhui, China) was used as positive control. The left ear of each mouse was used as an autologous control. The right ear of each mouse was treated with the above compounds in the stated concentrations. About 0.1 g of the various gels, and Dex cream were applied to the right ear of mice in each group, both inside and outside. The blank gel base was applied on the ears in the model groups. After 1 hour, 20 μL of xylene (Shanghai Aladdin Bio-Chem Technology Co., Ltd.) was applied to the same ear of each mouse. The mice were sacrificed by cervical dislocation 40 minutes after xylene application. The left and right ears were cut off. An EMS skin biopsy punch with a diameter of 8 mm was used to take a piece of the ear from the same site on both ears. The weights were recorded, and the swelling rate was calculated as a percentage according to the following formula: (right ear weight−left ear weight)/left ear weight×100

Substance	Swelling rate [%]
15 (Dihydrocaffeoyl-AKPS[Dopa][Hyp]T[Dopa][Hyp]K) [compound 15]	63
18 (Dihydrocaffeoyl-AKPS[Dopa][Hyp][Hyp]T[Dopa]K) [compound 18]	57
22 (Dihydrocaffeoyl-KPS[Dopa][Hyp]TA[Hyp]K) [compound 22]	40
58 (KAKPS[Dopa][Hyp][Hyp]T-dopamine) [compound 58]	43

same assay, conditions: xylene mouse ear swelling, topical gels 0.5 mg/g

Substance	anti-inflammatory effects compared with the other peptides tested
22 (Dihydrocaffeoyl-KPS[Dopa][Hyp]TA[Hyp]K) [compound 22]	stronger than the other peptide compounds tested
58 (KAKPS[Dopa][Hyp][Hyp]T-dopamine) [compound 58]	stronger than the other peptide compounds tested
